Experimental data: patent US20020173452A1, “Cytostatic-glycoconjugates having specifically cleavable linking units” (priority 2000, published 2002)
Where a SMILES comes first, the peptide text is derived from it. [ ]: non-standard residue; d: D form. The star is where a group is joined. ξ: configuration not given here. Camptothecin(20R,20-O) = CC[C@]1(O*)C(=O)OCc2c1cc1n(c2=O)Cc2cc3ccccc3nc2-1; X5 = C[C@H]1O[C@@H](Oc2ccc(NC(=S)*)cc2)[C@@H](O)[C@@H](OCC(N)=O)[C@H]1O; X9 = C[C@H]1O[C@@H](Oc2ccc(NC(=S)*)cc2)[C@@H](O)[C@@H](OCCO)[C@H]1O; X8 = C[C@H]1OC(Oc2ccc(NC(=S)*)cc2)[C@@H](O)[C@@H](OCC(=O)O)[C@H]1O; X4 = CO[C@H]1[C@H](O)[C@@H](Oc2ccc(NC(=S)*)cc2)O[C@@H](C)[C@H]1O; X6 = CO[C@@H]1[C@H](O)[C@H](Oc2ccc(NC(=S)*)cc2)O[C@H](C)[C@@H]1O; X1 = CO[C@H]1[C@@H](O)[C@@H](C)OC(Oc2ccc(NC(=S)*)cc2)[C@H]1O; X7 = OC[C@H]1OC(Oc2ccc(NC(=S)*)cc2)[C@@H](O)[C@@H](O)[C@H]1O; X2 = CC[C@@]1(O*)C(=O)OCc2c1cc1n(c2=O)Cc2cc3ccccc3nc2-1; Ile(3ξ) = CCC(C)[C@H](N)C(=O)O; ξV = CC(C)C(N)C(=O)O; ξP = O=C(O)C1CCCN1

Columns and labels:
Experiment in all cases: Growth inhibition test (MTT) for cytotoxic properties on tumour cell lines
Type in all cases: cell-based
[1] = tested on: B16F10 mouse melanoma cell line; settings: B16F10 cells, growth checked after day 6, read-out: IC50 of the cytotoxic action on tumour cell lines, B16F10
Procedure: (§1) A: Growth Inhibition Test for the Determination of the Cytotoxic Properties on Various Tumour Cell Lines
(§2) The human large intestine cell lines SW 480 and HT29 (ATCC No. CCL 228 and HTB38 and the mouse melanoma cell line B16F10 (CRL 6475) were grown to confluence in Roux dishes in RPMI 1640 medium with addition of 10% FCS. They were then trypsinized and taken up in RPMI plus 10% FCS to a cell count of 50,000 cells or, for B16F10, 20,000 cells per ml. 100 μl of cell suspension/well were added to a 96 microwell plate and incubated at 37° C. for 1 day in a CO2 incubator. A further 100 μl of RPMI medium and 1 μl of DMSO were then added with the test substances. The growth was checked after day 6. For this, 25 μl of MTT solution (3-(4,5-dimethylthiazol-2-yl)-2,5-diphenyltetrazolium bromide) was added to each well at a starting concentration of 5 mg/ml of H2O. The plate was incubated at 37° C. for 5 hours in a CO2 incubator. The medium was then aspirated and 100 μl of 1-propanol/well were added. After shaking with 100 μl of H2O for 30 min, the extinction was measured at 595 nm using a Multiplate Reader (BIO-RAD 3550-UV).
(§3) The cytostatic action is indicated in Table 1 as an IC50 value, in each case for the individual cell lines.

[2] = tested on: SW 480 human large intestine cell line; settings: SW480 cells, growth checked after day 6, read-out: IC50 of the cytotoxic action on tumour cell lines, SW480
Procedure: as §1, §2, §3

[3] = tested on: HT29 human large intestine cell line; settings: HT29 cells, growth checked after day 6, read-out: IC50 of the cytotoxic action on tumour cell lines, HT29
Procedure: as §1, §2, §3

| Compound | IC50 [1] [nM] | IC50 [2] [nM] | IC50 [3] [nM] |
| --- | --- | --- | --- |
| CC[C@@]1(OC(=O)[C@H](NC(=O)[C@@H](Cc2c[nH]cn2)NC(=O)CNC(=O)[C@H](CC(C)C)NC(=O)[C@H]2CCCN2C(=S)Nc2ccc(OC3O[C@H](C)[C@H](O)[C@H](OC)[C@@H]3O)cc2)C(C)C)C(=O)OCc2c1cc1n(c2=O)Cc2cc3ccccc3nc2-1 (stereo partly drawn) [Example 1] | 150 | 150 | 70 |
| CC[C@@]1(OC(=O)[C@H](NC(=O)[C@@H](CSC)NC(=O)[C@@H](CC(C)C)NC(=O)CNC(=O)[C@H](CC(C)C)NC(=O)[C@H]2CCCN2C(=S)Nc2ccc(OC3O[C@H](C)[C@H](O)[C@H](OC)[C@@H]3O)cc2)C(C)C)C(=O)OCc2c1cc1n(c2=O)Cc2cc3ccccc3nc2-1 (stereo partly drawn) [Example 8] (X1-[dP]LG[dL][dC](Me)[dV]-X2) | 150 | 50 | 40 |
| CC[C@]1(OC(=O)[C@H](NC(=O)[C@@H](CCCCN)NC(=O)[C@@H](CC(C)C)NC(=O)CNC(=O)[C@H](CC(C)C)NC(=O)[C@H]2CCCN2C(=S)Nc2ccc(O[C@@H]3O[C@H](C)[C@H](O)[C@H](OC)[C@@H]3O)cc2)C(C)C)C(=O)OCc2c1cc1n(c2=O)Cc2cc3ccccc3nc2-1 [Example 10] (X6-[dP]LG[dL][dK][dV]-{Camptothecin(20R,20-O)}) | 150 | 80 | 70 |
| CC[C@@]1(OC(=O)[C@H](NC(=O)[C@@H](Cc2c[nH]cn2)NC(=O)[C@@H](CC(C)C)NC(=O)CNC(=O)[C@H](CC(C)C)NC(=O)[C@H]2CCCN2C(=S)Nc2ccc(OC3O[C@H](C)[C@H](O)[C@H](OC)[C@@H]3O)cc2)C(C)C)C(=O)OCc2c1cc1n(c2=O)Cc2cc3ccccc3nc2-1 (stereo partly drawn) [Example 11] (X1-[dP]LG[dL][dH][dV]-X2) | 300 | 200 | 80 |
| CC[C@@]1(OC(=O)[C@H](NC(=O)[C@@H](Cc2c[nH]cn2)NC(=O)[C@@H](CC(C)C)NC(=O)CNC(=O)[C@H](CC(C)C)NC(=O)[C@H]2CCCN2C(=S)Nc2ccc(OC3O[C@H](C)[C@H](O)[C@H](OC)[C@@H]3O)cc2)C(C)C)C(=O)OCc2c1cc1n(c2=O)Cc2cc3ccccc3nc2-1 (stereo partly drawn) [Example 13] (X1-[dP]LG[dL][dH][dV]-X2) | 200 | 100 | 70 |
| CC[C@@]1(OC(=O)[C@@H](NC(=O)[C@@H](C)NC(=O)[C@H](CC(C)C)NC(=O)CNC(=O)[C@H](CC(C)C)NC(=O)[C@@H]2CCCN2C(=S)Nc2ccc(O[C@H]3O[C@@H](C)[C@@H](O)[C@@H](OC)[C@@H]3O)cc2)C(C)C)C(=O)OCc2c1cc1n(c2=O)Cc2cc3ccccc3nc2-1 [Example 14] (X4-PLGL[dA]V-X2) | 2000 | 700 | 900 |
| CC[C@@]1(OC(=O)[C@@H](NC(=O)[C@@H](NC(=O)[C@H](CC(C)C)NC(=O)CNC(=O)[C@H](CC(C)C)NC(=O)[C@@H]2CCCN2C(=S)Nc2ccc(O[C@H]3O[C@@H](C)[C@@H](O)[C@@H](OC)[C@@H]3O)cc2)C(C)C)C(C)C)C(=O)OCc2c1cc1n(c2=O)Cc2cc3ccccc3nc2-1 [Example 15] (X4-PLGLVV-X2) | 400 | 80 | 100 |
| CC[C@@]1(OC(=O)[C@@H](NC(=O)[C@H](Cc2ccccc2)NC(=O)[C@H](CC(C)C)NC(=O)CNC(=O)[C@H](CC(C)C)NC(=O)[C@@H]2CCCN2C(=S)Nc2ccc(O[C@H]3O[C@@H](C)[C@@H](O)[C@@H](OC)[C@@H]3O)cc2)C(C)C)C(=O)OCc2c1cc1n(c2=O)Cc2cc3ccccc3nc2-1 [Example 16] (X4-PLGLFV-X2) | 250 | 60 | 80 |
| CC[C@@]1(OC(=O)[C@@H](NC(=O)[C@H](CO)NC(=O)[C@H](CC(C)C)NC(=O)CNC(=O)[C@H](CC(C)C)NC(=O)[C@@H]2CCCN2C(=S)Nc2ccc(O[C@H]3O[C@@H](C)[C@@H](O)[C@@H](OC)[C@@H]3O)cc2)C(C)C)C(=O)OCc2c1cc1n(c2=O)Cc2cc3ccccc3nc2-1 [Example 17] (X4-PLGLSV-X2) | 200 | 40 | 70 |
| CCC(C)[C@H](NC(=O)[C@H](CC(C)C)NC(=O)CNC(=O)[C@H](CC(C)C)NC(=O)[C@@H]1CCCN1C(=S)Nc1ccc(O[C@H]2O[C@@H](C)[C@@H](O)[C@@H](OC)[C@@H]2O)cc1)C(=O)N[C@H](C(=O)O[C@]1(CC)C(=O)OCc2c1cc1n(c2=O)Cc2cc3ccccc3nc2-1)C(C)C (stereo partly drawn) [Example 18] (X4-PLGL[Ile(3ξ)]V-X2) | 600 | 100 | 200 |
| CC[C@@]1(OC(=O)[C@@H](NC(=O)[C@H](CCC(=O)O)NC(=O)[C@H](CC(C)C)NC(=O)CNC(=O)[C@H](CC(C)C)NC(=O)[C@@H]2CCCN2C(=S)Nc2ccc(O[C@H]3O[C@@H](C)[C@@H](O)[C@@H](OC)[C@@H]3O)cc2)C(C)C)C(=O)OCc2c1cc1n(c2=O)Cc2cc3ccccc3nc2-1 [Example 19] (X4-PLGLEV-X2) | 1500 | 200 | 400 |
| CC[C@@]1(OC(=O)[C@@H](NC(=O)CNC(=O)[C@H](CC(C)C)NC(=O)CNC(=O)[C@H](CC(C)C)NC(=O)[C@@H]2CCCN2C(=S)Nc2ccc(O[C@H]3O[C@@H](C)[C@@H](O)[C@@H](OC)[C@@H]3O)cc2)C(C)C)C(=O)OCc2c1cc1n(c2=O)Cc2cc3ccccc3nc2-1 [Example 20] (X4-PLGLGV-X2) | 800 | 120 | 250 |
| CC[C@@]1(OC(=O)[C@@H](NC(=O)[C@@H]2CCCN2C(=O)[C@H](CC(C)C)NC(=O)CNC(=O)[C@H](CC(C)C)NC(=O)[C@@H]2CCCN2C(=S)Nc2ccc(O[C@H]3O[C@@H](C)[C@@H](O)[C@@H](OC)[C@@H]3O)cc2)C(C)C)C(=O)OCc2c1cc1n(c2=O)Cc2cc3ccccc3nc2-1 [Example 21] (X4-PLGLPV-X2) | 800 | 100 | 250 |
| CC[C@@]1(OC(=O)[C@@H](NC(=O)[C@H](C)NC(=O)[C@H](CC(C)C)NC(=O)CNC(=O)[C@H](CC(C)C)NC(=O)[C@@H]2CCCN2C(=S)Nc2ccc(O[C@H]3O[C@@H](C)[C@@H](O)[C@@H](OC)[C@@H]3O)cc2)C(C)C)C(=O)OCc2c1cc1n(c2=O)Cc2cc3ccccc3nc2-1 [Example 22] (X4-PLGLAV-X2) | 250 | 40 | 70 |
| CC[C@@]1(OC(=O)[C@H](NC(=O)[C@@H](CC(N)=O)NC(=O)[C@@H](CC(C)C)NC(=O)CNC(=O)[C@H](CC(C)C)NC(=O)[C@H]2CCCN2C(=S)Nc2ccc(OC3O[C@H](C)[C@H](O)[C@H](OCC(=O)O)[C@@H]3O)cc2)C(C)C)C(=O)OCc2c1cc1n(c2=O)Cc2cc3ccccc3nc2-1 (stereo partly drawn) [Example 23] (X8-[dP]LG[dL][dN][dV]-X2) | 800 | 200 | 120 |
| CC[C@@]1(OC(=O)[C@H](NC(=O)[C@@H](CC(N)=O)NC(=O)[C@@H](CC(C)C)NC(=O)CNC(=O)[C@H](CC(C)C)NC(=O)[C@H]2CCCN2C(=S)Nc2ccc(OC3O[C@H](CO)[C@H](O)[C@H](O)[C@@H]3O)cc2)C(C)C)C(=O)OCc2c1cc1n(c2=O)Cc2cc3ccccc3nc2-1 (stereo partly drawn) [Example 24] (X7-[dP]LG[dL][dN][dV]-X2) | 500 | 200 | 100 |
| CC[C@]1(OC(=O)[C@H](NC(=O)[C@@H](CC(N)=O)NC(=O)[C@@H](CC(C)C)NC(=O)CNC(=O)[C@H](CC(C)C)NC(=O)[C@H]2CCCN2C(=S)Nc2ccc(O[C@@H]3O[C@H](C)[C@H](O)[C@H](OCCO)[C@@H]3O)cc2)C(C)C)C(=O)OCc2c1cc1n(c2=O)Cc2cc3ccccc3nc2-1 [Example 25] (X9-[dP]LG[dL][dN][dV]-{Camptothecin(20R,20-O)}) | 800 | 180 | 150 |
| CC[C@]1(OC(=O)C(NC(=O)[C@@H](CC(N)=O)NC(=O)[C@@H](CC(C)C)NC(=O)CNC(=O)[C@H](CC(C)C)NC(=O)C2CCCN2C(=S)Nc2ccc(O[C@@H]3O[C@H](C)[C@H](O)[C@H](OCC(N)=O)[C@@H]3O)cc2)C(C)C)C(=O)OCc2c1cc1n(c2=O)Cc2cc3ccccc3nc2-1 (stereo partly drawn) [Example 26] (X5-[ξP]LG[dL][dN][ξV]-{Camptothecin(20R,20-O)}) | 450 | 150 | 90 |
| CC[C@]1(OC(=O)[C@H](NC(=O)[C@@H](CC(N)=O)NC(=O)[C@@H](CC(C)C)NC(=O)CNC(=O)[C@H](CC(C)C)NC(=O)C2CCCN2C(=O)CNC(=S)Nc2ccc(O[C@@H]3O[C@H](C)[C@H](O)[C@H](OC)[C@@H]3O)cc2)C(C)C)C(=O)OCc2c1cc1n(c2=O)Cc2cc3ccccc3nc2-1 (stereo partly drawn) [Example 27] (X6-G[ξP]LG[dL][dN][dV]-{Camptothecin(20R,20-O)}) | 50 | 25 | 15 |
